Reference: patent publication US12054463B2, “Radiolabeled microtubule imaging compounds and uses thereof” (The Trustees of Columbia University in the City of New York, priority 2017, dated 2024)
“Also recorded” adds a separate entry of the source. Blank lines part the entries; values can stand above or below the molecule they belong to.

Key:
Adenosine = assay: Affinity to brain targets (panel); type: binding; conditions: Adenosine (A)
α1A-1C = assay: Affinity to brain targets (panel); type: binding
BZP = assay: Affinity to brain targets (panel); type: binding; conditions: BZP: benzodiazepine
Ca++ channel = assay: Affinity to brain targets (panel); type: binding
AMPA = assay: Affinity to brain targets (panel); type: binding
NET = NET (Homo sapiens, UniProt P23975); assay: Affinity to brain targets (panel); type: binding; conditions: NET: norepinephrine transporter
NK = assay: Affinity to brain targets (panel); type: binding; conditions: NK: neurokinin
Sigma1 = Sigma1 (Homo sapiens, UniProt Q99720); assay: Affinity to brain targets (panel); type: binding
Sequence of Sigma1 (Q99720 whole entry): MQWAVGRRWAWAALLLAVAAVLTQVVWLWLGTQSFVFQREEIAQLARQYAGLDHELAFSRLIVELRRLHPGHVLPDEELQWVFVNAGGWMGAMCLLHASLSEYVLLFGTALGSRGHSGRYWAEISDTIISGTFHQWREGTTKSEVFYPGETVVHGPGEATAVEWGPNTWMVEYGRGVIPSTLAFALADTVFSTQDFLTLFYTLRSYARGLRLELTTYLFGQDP

Na+ Channel = assay: Affinity to brain targets (panel); type: binding
mGluR = assay: Affinity to brain targets (panel); type: binding; conditions: mGluR (mGluRs): metabotropic glutamate receptors
NOP = NOP (Homo sapiens, UniProt P41146); assay: Affinity to brain targets (panel); type: binding
Sequence of NOP (P41146 whole entry): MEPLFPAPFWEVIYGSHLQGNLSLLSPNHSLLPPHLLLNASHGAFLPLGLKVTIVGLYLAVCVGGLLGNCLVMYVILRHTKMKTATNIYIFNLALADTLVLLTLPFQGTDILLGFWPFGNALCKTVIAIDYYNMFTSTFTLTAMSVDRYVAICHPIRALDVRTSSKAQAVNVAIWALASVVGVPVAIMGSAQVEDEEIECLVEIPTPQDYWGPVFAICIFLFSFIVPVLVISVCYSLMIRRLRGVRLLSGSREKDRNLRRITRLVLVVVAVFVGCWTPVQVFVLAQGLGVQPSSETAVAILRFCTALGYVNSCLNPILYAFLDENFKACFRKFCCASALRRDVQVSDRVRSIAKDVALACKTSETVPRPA

PBR = PBR (Homo sapiens, UniProt P30536); assay: Affinity to brain targets (panel); type: binding
Sequence of PBR (P30536 whole entry, species assumed): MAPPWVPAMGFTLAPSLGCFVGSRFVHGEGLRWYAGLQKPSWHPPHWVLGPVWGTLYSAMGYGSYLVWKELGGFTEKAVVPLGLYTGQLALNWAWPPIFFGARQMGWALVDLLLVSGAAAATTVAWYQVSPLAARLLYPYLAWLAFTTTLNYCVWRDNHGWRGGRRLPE

Oxytocin = target: T1, Oxytocin (Homo sapiens, UniProt P30559); assay: Affinity to brain targets (panel); type: binding
T1 sequence (P30559 1-389): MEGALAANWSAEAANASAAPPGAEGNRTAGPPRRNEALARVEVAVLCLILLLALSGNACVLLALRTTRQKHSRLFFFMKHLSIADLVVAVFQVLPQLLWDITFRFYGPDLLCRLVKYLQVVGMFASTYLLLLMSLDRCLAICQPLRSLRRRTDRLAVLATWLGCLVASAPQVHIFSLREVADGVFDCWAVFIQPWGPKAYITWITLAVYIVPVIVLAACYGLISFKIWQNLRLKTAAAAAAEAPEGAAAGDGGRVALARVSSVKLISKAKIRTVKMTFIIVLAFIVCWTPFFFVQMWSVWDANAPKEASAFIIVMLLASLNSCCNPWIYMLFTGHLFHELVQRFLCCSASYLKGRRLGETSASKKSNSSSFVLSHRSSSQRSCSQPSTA

Smoothened = Smoothened (Homo sapiens, UniProt Q99835); assay: Affinity to brain targets (panel); type: binding
Sequence of Smoothened (Q99835 28-787): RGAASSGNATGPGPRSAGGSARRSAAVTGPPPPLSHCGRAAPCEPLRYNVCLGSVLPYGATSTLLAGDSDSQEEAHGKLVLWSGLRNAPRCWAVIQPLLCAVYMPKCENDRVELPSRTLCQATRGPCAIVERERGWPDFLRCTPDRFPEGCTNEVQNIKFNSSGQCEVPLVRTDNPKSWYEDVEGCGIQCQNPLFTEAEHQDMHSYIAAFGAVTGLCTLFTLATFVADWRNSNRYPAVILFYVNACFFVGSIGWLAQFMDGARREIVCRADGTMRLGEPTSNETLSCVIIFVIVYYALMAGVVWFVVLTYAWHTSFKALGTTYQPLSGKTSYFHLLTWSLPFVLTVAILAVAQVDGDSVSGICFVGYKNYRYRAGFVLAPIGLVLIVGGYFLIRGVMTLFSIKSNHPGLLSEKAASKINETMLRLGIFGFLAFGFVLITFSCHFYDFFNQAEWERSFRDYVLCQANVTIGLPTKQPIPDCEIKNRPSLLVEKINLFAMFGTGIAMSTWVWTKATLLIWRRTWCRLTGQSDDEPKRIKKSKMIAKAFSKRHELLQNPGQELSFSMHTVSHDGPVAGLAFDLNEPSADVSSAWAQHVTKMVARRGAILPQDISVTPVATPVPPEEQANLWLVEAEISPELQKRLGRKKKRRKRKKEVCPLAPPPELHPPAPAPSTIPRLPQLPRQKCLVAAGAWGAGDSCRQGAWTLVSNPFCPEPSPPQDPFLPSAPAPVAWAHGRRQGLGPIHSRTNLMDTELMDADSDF

KA = assay: Affinity to brain targets (panel); type: binding; conditions: KA (KAR): Kainate
DAT = DAT (Homo sapiens, UniProt Q01959); assay: Affinity to brain targets (panel); type: binding; conditions: DAT: dopamine transporters
Sequence of DAT (Q01959 whole entry, species assumed): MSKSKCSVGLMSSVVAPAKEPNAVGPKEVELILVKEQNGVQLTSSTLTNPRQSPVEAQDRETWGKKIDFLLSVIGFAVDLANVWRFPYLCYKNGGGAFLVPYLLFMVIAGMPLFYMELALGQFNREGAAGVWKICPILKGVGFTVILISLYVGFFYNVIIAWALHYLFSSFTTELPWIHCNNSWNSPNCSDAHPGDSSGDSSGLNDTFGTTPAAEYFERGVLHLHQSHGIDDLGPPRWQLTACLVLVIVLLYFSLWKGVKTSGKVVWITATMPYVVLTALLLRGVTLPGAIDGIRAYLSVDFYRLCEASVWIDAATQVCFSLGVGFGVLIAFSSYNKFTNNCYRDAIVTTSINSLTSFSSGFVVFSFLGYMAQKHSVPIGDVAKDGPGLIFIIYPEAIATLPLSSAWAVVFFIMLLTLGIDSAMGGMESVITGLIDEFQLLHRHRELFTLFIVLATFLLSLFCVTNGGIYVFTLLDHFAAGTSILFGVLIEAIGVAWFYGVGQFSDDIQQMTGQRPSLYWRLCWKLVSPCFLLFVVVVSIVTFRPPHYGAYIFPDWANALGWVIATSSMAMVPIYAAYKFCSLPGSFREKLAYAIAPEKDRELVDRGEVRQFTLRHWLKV

DOR = DOR (Homo sapiens, UniProt P41143); assay: Affinity to brain targets (panel); type: binding; conditions: DOR: delta opioid receptors
Sequence of DOR (P41143 whole entry): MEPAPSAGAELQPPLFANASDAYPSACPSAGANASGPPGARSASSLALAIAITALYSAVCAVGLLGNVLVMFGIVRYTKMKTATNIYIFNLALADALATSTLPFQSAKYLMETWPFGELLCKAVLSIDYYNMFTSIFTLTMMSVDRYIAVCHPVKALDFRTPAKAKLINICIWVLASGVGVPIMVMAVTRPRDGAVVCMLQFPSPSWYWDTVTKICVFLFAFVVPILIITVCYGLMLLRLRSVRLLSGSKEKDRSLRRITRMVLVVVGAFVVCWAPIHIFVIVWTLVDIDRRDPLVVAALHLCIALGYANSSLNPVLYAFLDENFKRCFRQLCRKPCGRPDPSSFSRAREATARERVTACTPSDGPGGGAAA

EP = assay: Affinity to brain targets (panel); type: binding; conditions: EP: prostanoid receptors
GABA = assay: Affinity to brain targets (panel); type: binding
HERG = HERG (Homo sapiens, UniProt Q12809); assay: Affinity to brain targets (panel); type: binding; conditions: HERG: human ether-a-go-go
Sequence of HERG (Q12809 whole entry): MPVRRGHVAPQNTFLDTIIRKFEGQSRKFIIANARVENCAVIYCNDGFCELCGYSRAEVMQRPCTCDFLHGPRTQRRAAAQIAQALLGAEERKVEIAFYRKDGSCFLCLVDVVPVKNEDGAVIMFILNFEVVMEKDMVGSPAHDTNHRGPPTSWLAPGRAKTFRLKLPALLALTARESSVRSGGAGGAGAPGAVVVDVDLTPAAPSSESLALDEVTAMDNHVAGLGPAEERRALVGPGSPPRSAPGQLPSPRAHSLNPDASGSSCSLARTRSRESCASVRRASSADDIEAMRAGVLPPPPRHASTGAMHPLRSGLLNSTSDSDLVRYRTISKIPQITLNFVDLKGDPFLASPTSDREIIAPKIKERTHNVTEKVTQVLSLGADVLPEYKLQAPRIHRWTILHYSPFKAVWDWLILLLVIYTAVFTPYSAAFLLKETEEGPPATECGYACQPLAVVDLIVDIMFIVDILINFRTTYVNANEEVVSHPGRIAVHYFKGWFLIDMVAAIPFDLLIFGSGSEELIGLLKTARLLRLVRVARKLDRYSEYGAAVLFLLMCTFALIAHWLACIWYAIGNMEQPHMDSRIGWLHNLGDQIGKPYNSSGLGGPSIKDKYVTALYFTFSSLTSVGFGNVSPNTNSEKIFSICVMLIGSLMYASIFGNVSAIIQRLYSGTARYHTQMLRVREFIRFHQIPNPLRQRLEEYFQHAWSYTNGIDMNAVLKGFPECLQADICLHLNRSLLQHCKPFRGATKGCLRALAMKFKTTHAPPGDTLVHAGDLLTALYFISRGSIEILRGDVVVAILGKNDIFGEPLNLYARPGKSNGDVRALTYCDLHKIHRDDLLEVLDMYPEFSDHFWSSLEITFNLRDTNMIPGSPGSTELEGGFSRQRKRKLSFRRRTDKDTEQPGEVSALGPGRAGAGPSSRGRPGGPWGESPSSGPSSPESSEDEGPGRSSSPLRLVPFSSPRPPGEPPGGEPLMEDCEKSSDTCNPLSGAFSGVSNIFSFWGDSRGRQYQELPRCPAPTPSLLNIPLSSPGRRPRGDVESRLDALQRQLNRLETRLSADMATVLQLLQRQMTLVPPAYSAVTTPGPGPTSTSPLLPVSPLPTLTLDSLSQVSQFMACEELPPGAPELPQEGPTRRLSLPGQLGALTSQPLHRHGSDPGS

KOR = KOR (Homo sapiens, UniProt P41145); assay: Affinity to brain targets (panel); type: binding; conditions: KOR: kappa opioid receptors
M = assay: Affinity to brain targets (panel); type: binding; conditions: M: muscarinic
H3, H4 = assay: Affinity to brain targets (panel); type: binding; conditions: H3, H4: histamine
MDR1 = MDR1 (Homo sapiens, UniProt P08183); assay: Affinity to brain targets (panel); type: binding; conditions: MDR1: multidrug resistance
H1 = H1 (Homo sapiens, UniProt P35367); assay: Affinity to brain targets (panel); type: binding; conditions: H1: histamine
H2 = H2 (Homo sapiens, UniProt P25021); assay: Affinity to brain targets (panel); type: binding; conditions: H2: histamine
Sequence of H2 (P25021 whole entry): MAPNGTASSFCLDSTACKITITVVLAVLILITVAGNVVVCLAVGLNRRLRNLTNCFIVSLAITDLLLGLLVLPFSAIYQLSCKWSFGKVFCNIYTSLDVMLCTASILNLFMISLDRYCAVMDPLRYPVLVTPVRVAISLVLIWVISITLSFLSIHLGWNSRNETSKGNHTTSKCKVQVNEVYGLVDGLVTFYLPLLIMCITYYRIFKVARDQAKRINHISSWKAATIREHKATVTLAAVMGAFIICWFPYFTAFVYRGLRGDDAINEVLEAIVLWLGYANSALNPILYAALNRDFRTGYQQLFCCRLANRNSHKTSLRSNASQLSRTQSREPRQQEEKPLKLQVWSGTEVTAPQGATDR

MOR = MOR (Homo sapiens, UniProt P35372); assay: Affinity to brain targets (panel); type: binding; conditions: MOR: mu opioid receptor
NMDA = assay: Affinity to brain targets (panel); type: binding
SERT = SERT (Homo sapiens, UniProt P31645); assay: Affinity to brain targets (panel); type: binding; conditions: SERT: serotonin transporter
Sequence of SERT (P31645 whole entry, species assumed): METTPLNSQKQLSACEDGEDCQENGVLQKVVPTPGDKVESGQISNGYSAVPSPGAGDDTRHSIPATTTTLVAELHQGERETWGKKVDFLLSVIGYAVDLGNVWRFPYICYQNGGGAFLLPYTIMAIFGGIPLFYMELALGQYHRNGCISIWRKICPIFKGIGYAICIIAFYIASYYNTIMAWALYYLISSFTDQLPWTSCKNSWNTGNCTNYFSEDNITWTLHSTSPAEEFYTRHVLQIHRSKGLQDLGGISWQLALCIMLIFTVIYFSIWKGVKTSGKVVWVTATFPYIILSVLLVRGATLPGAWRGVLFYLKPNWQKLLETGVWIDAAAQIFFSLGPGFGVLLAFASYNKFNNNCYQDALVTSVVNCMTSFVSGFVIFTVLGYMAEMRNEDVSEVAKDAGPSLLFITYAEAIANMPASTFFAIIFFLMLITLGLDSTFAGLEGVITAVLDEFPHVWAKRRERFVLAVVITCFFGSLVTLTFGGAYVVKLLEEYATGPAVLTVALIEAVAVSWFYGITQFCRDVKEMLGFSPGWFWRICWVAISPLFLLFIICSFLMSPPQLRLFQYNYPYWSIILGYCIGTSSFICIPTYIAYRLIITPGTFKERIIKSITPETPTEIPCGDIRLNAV

Sigma2 = Sigma2 (Homo sapiens, UniProt Q5BJF2); assay: Affinity to brain targets (panel); type: binding; conditions: Sigma2 (Sigma 2)
Sequence of Sigma2 (Q5BJF2 whole entry): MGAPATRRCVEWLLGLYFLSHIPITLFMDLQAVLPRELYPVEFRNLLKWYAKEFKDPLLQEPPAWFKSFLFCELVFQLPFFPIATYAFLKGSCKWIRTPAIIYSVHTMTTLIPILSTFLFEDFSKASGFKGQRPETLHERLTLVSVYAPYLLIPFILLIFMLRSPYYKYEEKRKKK

I = assay: Affinity to brain targets (panel); type: binding
VMAT = assay: Affinity to brain targets (panel); type: binding; conditions: VMAT (VMAT 1,2): vesicular monoamine transporter
NT = assay: Affinity to brain targets (panel); type: binding; conditions: NT: neurotrophin
PKC = assay: Affinity to brain targets (panel); type: binding; conditions: PKC: Protein kinase C
5-HT1A-1E = assay: Affinity to brain targets (panel); type: binding
5-HT2A-2C = assay: Affinity to brain targets (panel); type: binding
5-HT3-7 = assay: Affinity to brain targets (panel); type: binding
α2A-2C = assay: Affinity to brain targets (panel); type: binding
β1-3 = assay: Affinity to brain targets (panel); type: binding
CB1, CB2 = assay: Affinity to brain targets (panel); type: binding
D1-D5 = assay: Affinity to brain targets (panel); type: binding
panel of kinases = conditions: cited from earlier work
[1] = references 12-14; cited from earlier work
tumor xenografts = conditions: references 12-14; cited from earlier work
[2] = log Poct/wat by shake flask method; type: physicochemical; conditions: octanol/water
Experimental: (§1) The radiochemical synthesis of [^11C] MPC-6827 was optimized and automated on aGE-FX2MeI/FX2M radiochemistry module by alkylating the desmethyl-MPC6827 precursor (6) with [^11C] MeI in DMF using NaOH. [^11C] MPC-6827 was produced with a radiochemical yield (RCY) of 40%, in >99% radiochemical purity and a specific activity of 2+0.5 Ci/μmol (decay corrected to end of synthesis (EOS)). The radioligand was stable in 5% ethanol-saline formulation for 4 h and the log Poct/wat was estimated as 3.8 by shake flask method.

[3] = Stability in 5% ethanol-saline formulation; type: physicochemical
Experimental: as §1

brain MT [4] = assay: Biodistribution in white male mice; type: in vivo
Experimental: (§2) Biodistribution of [^11C] […] The time-activity curves were expressed in g/mL normalized to the injected dose corrected for weight, to obtain standardized uptake values (SUVs). The brain SUV of [^11C] […] The heart, blood and muscles also show binding to [^11C] MPC-6827 and are consistent with known distribution of MTs in these organs. […] The lungs show higher uptake up to 30 minutes, followed by washout. 70% specific binding in brain was established at 30 minutes prior to the injection of radiotracer with 5 mg/kg MPC-6827 (FIG. 2) in mice.

rat brain = assay: MicroPET in rat; type: in vivo
brain MT [5] = assay: MicroPET in athymic nude male mice; type: in vivo
Experimental: as §2
Radioligand binding in thyroid gland, is also displaced during the blocking experiments.^21-23

[6] = system: glioblastoma (GBM) U251 cells; assay: In vitro cell uptake; type: cell-based
glioblastoma PDX cells = assay: In vitro cell uptake; type: cell-based
[7] = system: prostate cancer (PC3) cells; assay: In vitro cell uptake; type: cell-based
MDA-MB-231 cells = assay: Cell uptake and blocking; type: cell-based
[8] = system: amyloid overexpressing 5×FAD-AD mice; assay: MicroPET in AD animal model 5×FAD; type: in vivo; conditions: 15 month-old
Text: In vivo imaging of [^11C]MPC-6827 in amyloid overexpressing 5×FAD-AD mice (15 month-old) show 40% lower binding of radiotracer in the whole brain model in comparison to the wild type controls (FIGS. 10 and 11). The tracer binding in frontal and mid brain regions show significant lower binding than whole brain in comparison to wild type mice.

[9] = system: tau-overexpressing rTg4510 mice; assay: MicroPET in AD animal model rTg4510; type: in vivo; conditions: 9-month old
Text: MicroPET studies with 9-month old, tau-overexpressing rTg4510 mice (Alzheimer disease-tau pathology) show ˜35% lower binding of [^11C]MPC-6827 brain activity in comparison to the control mice (FIGS. 12 and 13).

Ki (Adenosine): > 10 µM
Ki (α1A-1C): > 10 µM
Ki (BZP): > 10 µM
Ki (Ca++ channel): > 10 µM
Ki (AMPA): > 10 µM
Ki (NET): > 10 µM
Ki (NK): > 10 µM
Ki (Sigma1): 0.832 µM
Ki (Na+ Channel): > 10 µM
Ki (mGluR): > 10 µM
Ki (NOP): > 10 µM
Ki (PBR): > 10 µM
Ki (Oxytocin): > 10 µM
Ki (Smoothened): > 10 µM
Ki (KA): > 10 µM
Ki (DAT): > 10 µM
Ki (DOR): > 10 µM
Ki (EP): > 10 µM
Ki (GABA): > 10 µM
Ki (KOR): > 10 µM
Ki (M): > 10 µM
Ki (H3, H4): > 10 µM
Ki (MDR1): > 10 µM
Ki (H1): 3.37 µM
Ki (H2): > 10 µM
Ki (MOR): > 10 µM
Ki (NMDA): > 10 µM
Ki (SERT): > 10 µM
Ki (Sigma2): 2.46 µM
Ki (I): > 10 µM
Ki (VMAT): > 10 µM
Ki (NT): > 10 µM
Ki (PKC): > 10 µM
Ki (5-HT1A-1E): > 10 µM
Ki (5-HT2A-2C): > 10 µM
Ki (5-HT3-7): > 10 µM
Ki (α2A-2C): > 10 µM
Ki (β1-3): > 10 µM
Ki (CB1, CB2): > 10 µM
Ki (D1-D5): > 10 µM
SMILES: Cc1nc(N(C)c2ccc(OCCF)cc2)c2c(C)coc2n1 [FE-HD-800]
Ki (HERG): > 10 µM

SMILES: Cc1nc(N(C)c2ccc(OCCF)cc2)c2ccccc2n1 [FEMPC-6827]
Ki (Adenosine): > 10 µM
Ki (α1A-1C): > 10 µM
Ki (BZP): > 10 µM
Ki (Ca++ channel): > 10 µM
Ki (AMPA): > 10 µM
Ki (NET): > 10 µM
Ki (NK): > 10 µM
Ki (Sigma1): 0.051 µM
Ki (Na+ Channel): > 10 µM
Ki (mGluR): > 10 µM
Ki (NOP): > 10 µM
Ki (PBR): 1.59 µM
Ki (Oxytocin): > 10 µM
Ki (Smoothened): > 10 µM
Ki (KA): > 10 µM
Ki (DAT): > 10 µM
Ki (DOR): > 10 µM
Ki (EP): > 10 µM
Ki (GABA): > 10 µM
Ki (HERG): > 10 µM
Ki (KOR): > 10 µM
Ki (M): > 10 µM
Ki (H3, H4): > 10 µM
Ki (MDR1): > 10 µM
Ki (H1): 0.305 µM
Ki (H2): 2.31 µM
Ki (MOR): > 10 µM
Ki (NMDA): > 10 µM
Ki (SERT): > 10 µM
Ki (Sigma2): 2.46 µM
Ki (I): > 10 µM
Ki (VMAT): > 10 µM
Ki (NT): > 10 µM
Ki (PKC): > 10 µM
Ki (5-HT1A-1E): > 10 µM
Ki (5-HT2A-2C): > 10 µM
Ki (5-HT3-7): > 10 µM
Ki (α2A-2C): > 10 µM
Ki (β1-3): > 10 µM
Ki (CB1, CB2): > 10 µM
Ki (D1-D5): > 10 µM

SMILES: COc1ccc2c(c1)NC(=O)CN2c1nc(C)nc2ccccc12 [WX-132-18B, 7-Methoxy-4-(2-methylquinazolin-4-yl)-3,4-dihydroquinoxalin-2(1H)-one]
binding to a panel / variety of kinases (panel of kinases): selective
BBB penetration [1]: BBB penetrant
tumor growth inhibition (TGI) compared with paclitaxel (tumor xenografts): higher tumor growth inhibition (TGI) than paclitaxel

SMILES: COc1ccc(N(C)c2nc(C)nc3ccccc23)cc1 [[^11C]MPC-6827]
logP [2]: 3.8
stable in 5% ethanol-saline formulation [3]: 4 h
BBB penetration and brain retention (brain MT [4]; biodistribution, white male mice): penetrated the BBB and was retained in the brain
specific binding in brain (brain MT [4]; mice, 30 minutes, blocking with 5 mg/kg MPC-6827): 70%
brain SUV (brain MT [4]; mice, compared with established PET tracers): higher than that of the established brain PET/periphery PET tracers
BBB penetration and retention in brain (rat brain): BBB penetration and excellent retention
brain uptake / BBB penetration (brain MT [5]; microPET, nude mice, baseline): excellent brain uptake; also recorded: penetrates the blood brain barrier (BBB) with excellent retention
blocking of brain uptake (brain MT [5]; pre-administration of 5 mg/kg MPC-6827 and 5 mg/kg HD-800 (i.v.)): substantially blocked
uptake and specific binding [6]: excellent uptake and specific binding
uptake and specific binding (glioblastoma PDX cells): excellent uptake and specific binding
uptake and specific binding [7]: excellent uptake and specific binding
binding site on microtubules (MDA-MB-231 cells): binds to taxane and colchicine binding sites of microtubules
incubation time to equilibrium binding (MDA-MB-231 cells): 60 min
specific binding (MDA-MB-231 cells; with 5 μM MPC-6827): 95%
specific binding (MDA-MB-231 cells; with 5 μM MTA HD-800): 95%
specific binding (MDA-MB-231 cells; with 5 μM colchicine): 65%
specific binding (MDA-MB-231 cells; with 5 μM docetaxel): 88%
specific binding (MDA-MB-231 cells; with 5 μM paclitaxel): 78%
lower binding of radiotracer in the whole brain vs wild type controls [8]: 40%
lower binding (brain activity) vs control mice [9]: ~35%
